Assay results reported in patent publication US20190119348A1, “PARATHYROID HORMONE RECEPTOR 1 ANTAGONIST AND INVERSE AGONIST POLYPEPTIDES AND METHODS OF THEIR USE” (The General Hospital Corporation, priority 2016, published 2019).
Where a SMILES comes first, the peptide text is derived from it. [ ]: non-standard residue; d: D form. Nle = CCCC[C@H](N)C(=O)O

Biological target: T1, human PTHR1-H223R (Homo sapiens, UniProt Q03431, H223R)
T1 construct: expressed in transfected cells; host or cells: GHR-10 (HEK-293 stably expressing GloSensor and PTHR1-H223R)
T1 sequence (Q03431 27-593 H223R): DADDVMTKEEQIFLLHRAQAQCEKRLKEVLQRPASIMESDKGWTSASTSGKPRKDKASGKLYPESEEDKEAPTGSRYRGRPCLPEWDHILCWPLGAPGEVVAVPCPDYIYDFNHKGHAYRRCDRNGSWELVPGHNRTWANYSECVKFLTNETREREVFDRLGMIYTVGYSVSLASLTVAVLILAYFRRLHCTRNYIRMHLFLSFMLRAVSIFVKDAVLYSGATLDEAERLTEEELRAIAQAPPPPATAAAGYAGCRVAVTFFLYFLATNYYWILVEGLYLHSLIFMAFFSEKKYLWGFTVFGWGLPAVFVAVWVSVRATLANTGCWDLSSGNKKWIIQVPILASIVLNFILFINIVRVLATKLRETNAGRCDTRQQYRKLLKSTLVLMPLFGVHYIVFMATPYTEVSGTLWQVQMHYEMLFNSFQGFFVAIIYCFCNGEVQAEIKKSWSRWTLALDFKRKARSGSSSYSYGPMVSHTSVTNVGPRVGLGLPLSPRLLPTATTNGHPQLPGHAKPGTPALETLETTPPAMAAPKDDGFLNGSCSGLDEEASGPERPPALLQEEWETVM
Assay: Inverse agonism on basal cAMP signaling in GHR-10 cells
Type: cell-based
Conditions: GHR-10 cells, from AUC, representative experiment; for Reduction of basal cAMP, % vehicle, After ligand washout: 26 minutes after washout of unbound ligand; for Reduction of basal cAMP, % vehicle, Ligand @ −6M: peptide 1×10^−6 M for 24 minutes
Procedure: cAMP signaling was assessed in the HEK293-derived or SaOS2-derived cell lines stably expressing the luciferase-based GloSensor™ cAMP reporter (Hattersley et al., Paper presented at: Novel Signaling Mechanisms and Bone Cell Biology 2014; Binkowski et al., Methods in molecular biology. 756:263-271). HEK-293 cells were further transfected to stably express the hPTHR1, hPTHR1-H223R, or hPTHR1-T410P. The cells were seeded into 96-well white plates and were assayed 24 to 48 hours post-confluency. Assays were performed at room temperature in CO2-independent culture media (Life Technologies, Corp., Carlsbad, Calif.) containing 0.1% BSA (CIDB). The cells were pre-loaded with luciferin (0.5 mM in CIDB) for 15 minutes, then PTH peptides were added at varying concentrations. cAMP-dependent luminescence was measured at two-minute intervals using a PerkinElmer Envision plate reader. The time at which maximum luminescence (cps) observed with agonist alone, typically at 10-20 minutes after agonist addition, was used to obtain data from wells containing antagonist with or without agonist, to thus generate antagonist ligand dose-response curves. The resulting cps values were then plotted against ligand concentration using GraphPad Prism 7.0 software and a four-parameter logistics curve fitting equation, which yielded parameters of inhibitory potency (pIC50).
These experiments were performed in HEK-293 cells stably transfected to express the GloSensor™ cAMP reporter along with a constitutively active mutant human PTHR1. The HEK-293 cells stably expressing GloSensor™ cAMP reporter along with a constitutively active mutant human PTHR1-H223R are GHR-10 cells. The HEK-293 cells stably expressing GloSensor™ cAMP reporter along with a constitutively active mutant human PTHR1-T410P are GTP-4 cells. The HEK-293 cells stably expressing GloSensor™ cAMP reporter along with a WT-PTHR1 are GP-2.3 cells. GP-2.3 cells were used as control. […] Effects on basal cAMP signaling over time were assessed during periods of direct ligand addition (FIGS. 15A-15F). The measurements were performed by recording GloSensor™ luminescence as counts per second (cps) using a PerkinElmer Envision plate reader. The data are illustrated in FIGS. 15A-15F. Data are from triplicate wells (means±SEM) of a single experiment representative of two others.
Persistence of the antagonist/inverse agonist effects (prolonged action) as follows. Effects of eight peptides on basal and PTH(1-34)-stimulated cAMP signaling by PTHR-H223R were assessed in GHR-10 cells (HEK-293-derived cells stably expressing glosensor cAMP reporter and PTHR1-H223R). Time courses of changes in cAMP levels were recorded in three consecutive phases:
1) after initial addition of a candidate antagonist/inverse agonist (1×10^−6 M-1×10^−9 M) to cells pre-loaded for […] with luciferin (left column);
2) after removal of unbound inverse agonist by extensive wash-out with buffer and replenishment with fresh luciferin-containing buffer (middle column); and
Control wells were treated with vehicle. GloSensor™ luminescence, as counts per second (cps), was recorded using a PerkinElmer Envision plate reader. Data are from duplicate wells (means±SEM) of a single experiment representative of two others. The results are illustrated in Table 7 and in FIGS. 16A-16C, 17A-17C, 18A-18C, 19A-19C, 20A-20C, 21A-21C, 22A-22C, and 23A-23C.
GHR10 cells were treated with vehicle or vehicle containing the indicated peptide for 24 minutes and cAMP-dependent luminescence was recorded at two-minute intervals. The cells were then washed to remove unbound ligand and media containing fresh luciferin was added, and cAMP luminescence was recorded for another 26 minutes. Percentage reduction was calculated from the area-under-the-curve (AUC) values derived from the time course plots using the equation: […]

Row | SMILES | Reduction of basal cAMP, % vehicle, After ligand washout | Reduction of basal cAMP, % vehicle, Ligand @ −6M
1 | CCCC[C@H](NC(=O)[C@H](CC(C)C)NC(=O)[C@H](CCC(N)=O)NC(=O)[C@@H](N)[C@@H](C)CC)C(=O)N[C@@H](Cc1c[nH]cn1)C(=O)N[C@@H](CCC(N)=O)C(=O)N[C@@H](CC(C)C)C(=O)N[C@H](Cc1c[nH]c2ccccc12)C(=O)N[C@@H](CCCCN)C(=O)N[C@@H](Cc1c[nH]c2ccccc12)C(=O)N[C@H](C(=O)N[C@@H](CCC(N)=O)C(=O)N[C@@H](CC(=O)O)C(=O)N[C@@H](C)C(=O)N[C@@H](CCCNC(=N)N)C(=O)N[C@@H](CCCNC(=N)N)C(=O)N[C@@H](CCCNC(=N)N)C(=O)N[C@@H](C)C(=O)N[C@@H](Cc1c[nH]c2ccccc12)C(=O)N[C@@H](CC(C)C)C(=O)N[C@@H](Cc1c[nH]cn1)C(=O)N[C@@H](CCCCN)C(=O)N[C@@H](CC(C)C)C(=O)N[C@H](C(=O)N[C@@H](C)C(=O)N[C@@H](CCC(=O)O)C(=O)N[C@H](C(=O)N[C@@H](Cc1c[nH]cn1)C(=O)N[C@H](C(=O)N[C@@H](C)C(=O)N[C@@H](CCC(=O)O)C(=O)N[C@H](C(N)=O)[C@@H](C)CC)[C@@H](C)O)[C@@H](C)CC)[C@@H](C)CC)[C@@H](C)CC [compound 1999, Nle8, L11, dW12, W23-LA-PTH(5-36)-1999] (H-IQL[Nle]HQL[dW]KWIQDARRRAWLHKLIAEIHTAEI-NH2; N-terminus assumed) | 62 % vehicle | 63 % vehicle
2 | CC[C@H](C)[C@H](NC(=O)[C@H](CCC(=O)O)NC(=O)[C@H](C)NC(=O)[C@@H](NC(=O)[C@H](Cc1c[nH]cn1)NC(=O)[C@@H](NC(=O)[C@H](CCC(=O)O)NC(=O)[C@H](C)NC(=O)[C@@H](NC(=O)[C@H](CC(C)C)NC(=O)[C@H](CCCCN)NC(=O)[C@H](Cc1c[nH]cn1)NC(=O)[C@H](CC(C)C)NC(=O)[C@H](Cc1c[nH]c2ccccc12)NC(=O)[C@H](C)NC(=O)[C@H](CCCNC(=N)N)NC(=O)[C@H](CCCNC(=N)N)NC(=O)[C@H](CCCNC(=N)N)NC(=O)[C@H](C)NC(=O)[C@H](CC(=O)O)NC(=O)[C@H](CCC(N)=O)NC(=O)[C@@H](NC(=O)[C@H](Cc1c[nH]c2ccccc12)NC(=O)[C@H](CCCCN)NC(=O)[C@@H](Cc1c[nH]c2ccccc12)NC(=O)[C@H](CC(C)C)NC(=O)[C@H](CCC(N)=O)NC(=O)[C@H](Cc1c[nH]cn1)NC(=O)[C@H](CCSC)NC(=O)[C@@H](N)CC(C)C)[C@@H](C)CC)[C@@H](C)CC)[C@@H](C)CC)[C@@H](C)O)C(N)=O [compound 2001, L11, dW12, W23-LA-PTH(7-36)-2001] (H-LMHQL[dW]KWIQDARRRAWLHKLIAEIHTAEI-NH2; N-terminus assumed) | 65 % vehicle | 66 % vehicle
3 | CC[C@H](C)[C@H](N)C(=O)N[C@@H](CCC(N)=O)C(=O)N[C@@H](CC(C)C)C(=O)N[C@@H](CCSC)C(=O)N[C@@H](Cc1c[nH]cn1)C(=O)N[C@@H](CCC(N)=O)C(=O)N[C@@H](CC(C)C)C(=O)N[C@H](Cc1c[nH]c2ccccc12)C(=O)N[C@@H](CCCCN)C(=O)N[C@@H](Cc1c[nH]c2ccccc12)C(=O)N[C@H](C(=O)N[C@@H](CCC(N)=O)C(=O)N[C@@H](CC(=O)O)C(=O)N[C@@H](C)C(=O)N[C@@H](CCCNC(=N)N)C(=O)N[C@@H](CCCNC(=N)N)C(=O)N[C@@H](CCCNC(=N)N)C(=O)N[C@@H](C)C(=O)N[C@@H](Cc1c[nH]c2ccccc12)C(=O)N[C@@H](CC(C)C)C(=O)N[C@@H](Cc1c[nH]cn1)C(=O)N[C@@H](CCCCN)C(=O)N[C@@H](CC(C)C)C(=O)N[C@H](C(=O)N[C@@H](C)C(=O)N[C@@H](CCC(=O)O)C(=O)N[C@H](C(=O)N[C@@H](Cc1c[nH]cn1)C(=O)N[C@H](C(=O)N[C@@H](C)C(=O)N[C@@H](CCC(=O)O)C(=O)N[C@H](C(N)=O)[C@@H](C)CC)[C@@H](C)O)[C@@H](C)CC)[C@@H](C)CC)[C@@H](C)CC [compound 2003, L11, dW12, W23-LA-PTH(5-36)-2003] (H-IQLMHQL[dW]KWIQDARRRAWLHKLIAEIHTAEI-NH2; N-terminus assumed) | 64 % vehicle | 66 % vehicle
